Where a name gives a salt, the structure may show the parent alone.
Target: T1, human receptor found in pancreatic islet cells (Homo sapiens, UniProt Q7Z601)
T1 sequence (Q7Z601 1-462): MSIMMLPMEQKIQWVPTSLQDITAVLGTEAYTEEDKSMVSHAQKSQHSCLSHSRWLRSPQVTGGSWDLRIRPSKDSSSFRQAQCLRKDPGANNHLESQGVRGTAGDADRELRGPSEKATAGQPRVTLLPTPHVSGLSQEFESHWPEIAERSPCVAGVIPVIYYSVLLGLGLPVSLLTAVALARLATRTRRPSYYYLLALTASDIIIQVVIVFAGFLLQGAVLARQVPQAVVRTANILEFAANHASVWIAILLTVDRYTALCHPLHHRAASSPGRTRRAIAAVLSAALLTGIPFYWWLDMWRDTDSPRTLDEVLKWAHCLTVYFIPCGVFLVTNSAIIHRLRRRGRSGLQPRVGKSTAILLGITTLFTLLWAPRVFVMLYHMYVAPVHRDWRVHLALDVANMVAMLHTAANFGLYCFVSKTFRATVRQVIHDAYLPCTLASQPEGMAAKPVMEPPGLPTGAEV
Assay: Activation of intracellular IP3 signaling in transfected cells (Activation Assay)
Assay type: cell-based
Conditions: calculated from IP3 concentration measurements in cells transfected with the human receptor
Procedure: Table 12 provides exemplary compounds that were prepared and assessed, following protocols known to those of skilled in the art, for activation of intracellular inositol trisphosphate (IP3) signaling pathways that lead to elevation of intracellular calcium concentration. EC50 values provided in Table 12 were calculated from IP3 concentration measurements in cells transfected with a human receptor found in pancreatic islet cells, inter alia.

Structure (SMILES) | EC50 [nM]
COc1ncc(-c2ccncc2)cc1NC(=O)[C@H](Cc1ccccc1)NCc1ccon1 [Example 35.4, (S)-2-(Isoxazol-3-ylmethylamino)-N-(2-methoxy-5-(pyridin-4-yl)pyridin-3-yl)-3-phenylpropanamide] | 100 to 1000
Cn1cnnc1CN[C@@H](Cc1ccccc1)C(=O)Nc1cccc(-c2ccncc2)c1 [Example 34.20, (S)-2-((4-Methyl-4H-1,2,4-triazol-3-yl)methylamino)-3-phenyl-N-(3-(pyridin-4-yl)phenyl)propanamide] | 100 to 1000
Nc1cc(-c2cccc(NC(=O)[C@H](Cc3ccccc3)NCc3cscn3)c2)ccn1 [Example 36, (2S)—N-(3-(2-Aminopyridin-4-yl)phenyl)-3-phenyl-2-(thiazol-4-ylmethylamino)propanamide] | 100 to 1000
CN(C(=O)[C@H](Cc1ccccc1)NCc1cscn1)c1cccc(-c2ccncc2)c1 [Example 34.8, (S)—N-Methyl-3-phenyl-N-(3-(pyridin-4-yl)phenyl)-2-(thiazol-4-ylmethylamino)propanamide] | 1000 to 10000
COC(=O)c1cc(-c2ccncc2)cc2c1CCN2C(=O)[C@H](Cc1ccc(F)cc1)NCc1ccccn1 [Example 54.7, (S)-Methyl 1-(3-(4-fluorophenyl)-2-(pyridin-2-ylmethylamino)propanoyl)-6-(pyridin-4-yl)indoline-4-carboxylate] | 50 to 100
O=C(O)c1cc(NC(=O)[C@H](Cc2ccccc2)NCc2cc[nH]n2)cc(-c2ccncc2)c1 [Example 45.5, (S)-3-(2-((1H-Pyrazol-3-yl)methylamino)-3-phenylpropanamido)-5-(pyridin-4-yl)benzoic acid] | 100 to 1000
O=C(Nc1cccc(-c2ccncc2)c1)[C@H](Cc1ccccc1)NCc1cscn1 [Example 34.14, (S)-3-Phenyl-N-(3-(pyridin-4-yl)phenyl)-2-(thiazol-4-ylmethylamino)propanamide] | 50 to 100
COC(=O)c1cc(-c2ccncc2)cc2c1CCN2C(=O)[C@H](Cc1ccccc1)NCc1cscn1 [Example 54.3, (S)-Methyl 1-(3-phenyl-2-(thiazol-4-ylmethylamino)propanoyl)-6-(pyridin-4-yl)indoline-4-carboxylate] | 50 to 100
COC(=O)C1CN(Cc2cc(NC(=O)[C@H](Cc3ccccc3)NCc3ccccn3)cc(-c3ccnc(C)c3)c2)C1 [Example 80, Methyl 1-((16S)-3-(2-methylpyridin-4-yl)-5-((S)-3-phenyl-2-(pyridin-2-ylmethylamino)propanamido)benzyl)azetidine-3-carboxylate] | 100 to 1000
COC(=O)C1CN(Cc2cc(NC(=O)[C@H](Cc3ccccc3)NCc3cscn3)cc(-c3ccnc(C)c3)c2)C1 [Example 79] | 100 to 1000
N[C@@H](Cc1ccccc1)C(=O)Nc1cccc(-c2ccncc2)c1 [Example 34.1.D, (S)-2-Amino-3-phenyl-N-(3-(pyridin-4-yl)phenyl)propanamide] | 1000 to 10000
O=C([C@H](Cc1ccccc1)NCc1cscn1)N1CCc2c(-c3nnco3)cc(-c3ccncc3)cc21 [Example 68, (2S)-1-(4-(1,3,4-Oxadiazol-2-yl)-6-(pyridin-4-yl)indolin-1-yl)-3-phenyl-2-(thiazol-4-ylmethylamino)propan-1-one] | 100 to 1000
CCn1nc(-c2ccncc2)cc1NC(=O)[C@H](Cc1ccccc1)NCCCc1ccccn1 [Example 20.2] | < 50
C[C@H](N[C@@H](Cc1ccccc1)C(=O)Nc1nnc(-c2ccncc2)s1)c1cscn1 [Example 1.4] | 50 to 100
COC(=O)COc1ccc(-c2ccnc(C)c2)cc1NC(=O)[C@H](Cc1ccccc1)NCc1cscn1 [Example 64, Methyl 2-(4-(2-methylpyridin-4-yl)-2-((S)-3-phenyl-2-(thiazol-4-ylmethylamino)propanamido)phenoxy)acetate] | 50 to 100
NC(=O)CNC(=O)c1cc(-c2ccncc2)cc2c1CCN2C(=O)[C@H](Cc1ccccc1)NCc1cscn1 [Example 71, (S)—N-(2-Amino-2-oxoethyl)-1-(3-phenyl-2-(thiazol-4-ylmethylamino)propanoyl)-6-(pyridin-4-yl)indoline-4-carboxamide] | 50 to 100

The remaining lines, values ahead:

EC50 [nM] | Structure (SMILES)
100 to 1000 | COc1ccc(NC(=O)[C@H](Cc2ccccc2)NCc2cscn2)cc1-c1ccncc1 [Example 38, (S)—N-(4-Methoxy-3-(pyridin-4-yl)phenyl)-3-phenyl-2-(thiazol-4-ylmethylamino)propanamide]
< 50 | Cc1cc(-c2cc(-c3n[nH]c(=S)o3)c3c(c2)N(C(=O)[C@H](Cc2ccccc2)NCc2cscn2)CC3)ccn1 [Example 66, (2S)-1-(6-(2-Methylpyridin-4-yl)-4-(5-thioxo-4,5-dihydro-1,3,4-oxadiazol-2-yl)indolin-1-yl)-3-phenyl-2-(thiazol-4-ylmethylamino)propan-1-one]
< 50 | CCn1nc(-c2ccnc(NC)c2)cc1NC(=O)[C@H](Cc1ccc(F)cc1)NCc1cscn1 [Example 31.1, (2S)—N-(1-Ethyl-3-(2-(methylamino)pyridin-4-yl)-1H-pyrazol-5-yl)-3-(4-fluorophenyl)-2-(thiazol-4-ylmethylamino)propanamide]
1000 to 10000 | O=C(Nc1cccc(-c2ccncc2)c1)[C@@H](Cc1ccccc1)NCc1cncs1 [Example 34.6, (R)-3-Phenyl-N-(3-(pyridin-4-yl)phenyl)-2-(thiazol-5-ylmethylamino)propanamide trifluoroacetate]
50 to 100 | CNc1cc(-c2cc(NC(=O)[C@H](Cc3ccc(F)cc3)NCc3nnn[nH]3)n(C)n2)ccn1 [Example 23.11, (2S)-2-((1H-tetrazol-5-yl)methylamino)-3-(4-fluorophenyl)-N-(1-methyl-3-(2-(methylamino)pyridin-4-yl)-1H-pyrazol-5-yl)propanamide]
50 to 100 | COc1ncc(-c2ccncc2)cc1NC(=O)[C@H](Cc1ccccc1)NC1(c2csc(C)n2)CC1 [Example 35.3, (S)—N-(2-Methoxy-5-(pyridin-4-yl)pyridin-3-yl)-2-(1-(2-methylthiazol-4-yl)cyclopropylamino)-3-phenylpropanamide]
50 to 100 | NC(=O)c1cc(NC(=O)[C@H](Cc2ccccc2)NCc2cscn2)cc(-c2ccncc2)c1 [Example 47, (S)-3-(3-phenyl-2-(thiazol-4-ylmethylamino)propanamido)-5-(pyridin-4-yl)benzamide]
50 to 100 | Cc1cc(-c2cc(NC(=O)[C@H](Cc3ccc(F)cc3)NCC(=O)O)n(C)n2)ccn1 [Example 16.2, 2-((S)-3-(4-Fluorophenyl)-1-(1-methyl-3-(2-methylpyridin-4-yl)-1H-pyrazol-5-ylamino)-1-oxopropan-2-ylamino)acetic acid dihydrochloride]
1000 to 10000 | Cn1ncnc1-c1cc(-c2ccncc2)cc2c1CCN2C(=O)[C@H](Cc1ccccc1)NCc1cscn1 [Example 61, (2S)-1-(4-(2-Methyl-2H-1,2,4-triazol-3-yl)-6-(pyridin-4-yl)indolin-1-yl)-3-phenyl-2-(thiazol-4-ylmethylamino)propan-1-one]
1000 to 10000 | O=C(O)c1cc(NC(=O)[C@H](Cc2ccccc2)NCc2cn[nH]c2)cc(-c2ccncc2)c1 [Example 45.4, (S)-3-(2-((1H-Pyrazol-4-yl)methylamino)-3-phenylpropanamido)-5-(pyridin-4-yl)benzoic acid]
100 to 1000 | COc1ncc(-c2cc[nH]n2)cc1NC(=O)[C@H](Cc1ccccc1)NC1(c2cscn2)CC1 [Example 14.2]
< 50 | CCn1nc(-c2ccncc2)cc1NC(=O)[C@H](Cc1ccc(F)cc1)NCc1cscn1 [Example 20.1, (S)—N-(1-ethyl-3-(pyridine-4-yl)-1H-pyrazol-5-yl)-3-(4-fluorophenyl)-2-(thiazol-4-ylmethlamino)propanamide]
100 to 1000 | Cn1nc(-c2ccncc2)cc1NC(=O)[C@H](Cc1ccccc1)NCC1CC1 [Example 17.6, (S)-2-(Cyclopropylmethylamino)-N-(1-methyl-3-(pyridin-4-yl)-1H-pyrazol-5-yl)-3-phenylpropanamide]
50 to 100 | CC(C)(C)OC(=O)CN[C@@H](Cc1ccc(F)cc1)C(=O)Nc1cccc(-c2ccncc2)c1 [Example 34.4]
100 to 1000 | COC(=O)COc1cc(NC(=O)[C@H](Cc2ccccc2)NCc2cscn2)cc(-c2ccnc(C)c2)c1 [Example 65, Methyl 2-(3-(2-methylpyridin-4-yl)-5-((S)-3-phenyl-2-(thiazol-4-ylmethylamino)propanamido)phenoxy)acetate]
1000 to 10000 | CC(C)N[C@@H](Cc1ccccc1)C(=O)Nc1cccc(-c2ccncc2)c1 [Example 34.13, (S)-2-(Isopropylamino)-3-phenyl-N-(3-(pyridin-4-yl)phenyl)propanamide]
< 50 | Cn1nc(-c2ccncc2)cc1NC(=O)[C@H](Cc1ccc(F)cc1)NCc1cscn1 [Example 17.5, (S)-3-(4-Fluorophenyl)-N-(1-methyl-3-(pyridin-4-yl)-1H-pyrazol-5-yl)-2-(thiazol-4-ylmethylamino)propanamide]
100 to 1000 | NC(=O)c1cc(-c2ccncc2)cc2c1CCN2C(=O)[C@H](Cc1ccccc1)NCc1cscn1 [Example 60, (S)-1-(3-Phenyl-2-(thiazol-4-ylmethylamino)propanoyl)-6-(pyridin-4-yl)indoline-4-carboxamide]

— patent US8785468B2, “Phenylalanine amide derivatives useful for treating insulin-related diseases and conditions” (Amgen Inc., priority 2009, dated 2014)
